27 compounds from patent US7855185B2, “MN gene and protein” (Institute of Virology of the Slovak Academy of Sciences, priority 2001, dated 2010) can be followed below.

The test system of assay [1] is Rat2TK- cells and C33 human cervical carcinoma cells transfected with pMN-HSVtk. The assay can be described thus: GVC sensitivity of pMN-HSVtk transfectants. Format: cell-based. Conditions: in vitro, even in low concentrations. As to the method: A plasmid construct in which HSVtk was cloned downstream of the MN promoter region Bd3, containing both proximal and distant regulatory elements of MN, was prepared. That plasmid pMN-HSVtk was transfected to Rat2TK-cells and C33 human cervical carcinoma cells using calcium phosphate precipitation and lipofection, respectively. Transfectants were tested for expression of HSVtk and GVC sensitivity. Analysis of the transfectants has shown the remarkable cytotoxic in vitro effect of GVC even in low concentrations (up to 95% of cells killed).

The test system of assay [2] is NIH3T3 cells freshly transformed with the [pGD.MN+MLV] complex. The assay can be described thus: Morphologic transformation of NIH3T3 cells by [pGD.MN+MLV] complex in the presence of acetazolamide. The settings on record: 10^−5M, 4 days of incubation.
A further assay concerns MAb M75. The experiment in a line: Competition ELISA with M75 on adsorbed GST-MN. The assay is classed as binding, mouse. The settings on record: for competition in ELISA for M75: 100 μg/ml; for activity of phage-display nonapeptides in competition ELISA: peptides of 7+2 aa. On the procedure: ELISA. Purified GST-MN [Zavada et al. (1993), supra] at concentration 10 ng/ml in carbonate buffer pH 9.2 was adsorbed for 3 h in Maxisorb strips (NUNC). After washing and blocking (1 h) with 0.05% Tween 20 in PBS, 50 μl/well of the antibody+antigen mixtures were added. […] These mixtures were adsorbed for 1.5 h, followed by washing with Tween-PBS. Bound antibody was detected by antimouse IgG conjugate with peroxidase (SwAM-Px, SEVAC, Prague), diluted 1:1000. In the color reaction OPD (o-phenylenediamine dihydrochloride, Sigma) 1 mg/ml in 0.1 M citrate buffer pH 5.0 was used. To this H2O2 was added to final concentration 0.03%. This system is balanced so as to allow assay for antigen competing for M75 as well as for peptides binding to the epitope of immobilized GST-MN.
Identification of the epitope recognized by Mab M75. Preliminary mapping of M75 epitope employing partial sequences of extracellular parts of MN/CA9 cDNA expressed from bacterial vectors and tested on Western blots located it in PG region For exact mapping, our strategy was to synthesize partially overlapping oligopeptides of 15-25 aa covering the PG domain and test them in competition ELISA with M75. According to the results, this was followed by a series of 6-12 aa oligopeptides. A major part of the PG domain consists of a 6-fold tandem repeat of 6 aa (aa 61-96) [SEQ ID NO: 97]; 4 repeats are identical (GEEDLP) [SEQ ID NO: 98] and 2 contain 2 aa exchanged (SEEDSP [SEQ ID NO: 141] and REEDPP [SEQ ID NO: 142]).
(In general: In an ELISA, binding on a coated surface is turned into a signal by an enzyme label.)

The next assay concerns the target MN/CA IX (Homo sapiens, UniProt Q16790). The assay can be described thus: Cell adhesion assay on immobilized purified MN/CA IX (Example 2). Format: cell-based. As to the method: The series of oligopeptides were tested by the cell adhesion assay procedure essentially as described above in Example 1. The synthetic oligopeptides were immobilized on hydrophobic plastic surfaces to see if they would mediate the attachment, spreading and growth of cells. Also investigated were whether the oligopeptides or antibodies inhibited attachment of cells (NIH3T3, HeLa and CGL1) to purified MN protein coated onto such plastic surfaces. The MN protein was affinity purified on agarose covalently linked to sulfonamide, as the MN protein encompasses a CA domain.
Cell adhesion assay. The conditions of the assay are basically as described in Example 1. Briefly, 1 μg/ml of purified MN/CA IX in 50 mM mono/bicarbonate buffer, pH 9.2, was adsorbed in 30 μl drops on the bottom of bacteriological 5 cm Petri dishes for 1.5 hr. Then the drops were removed by aspiration and the dishes were 3× rinsed with PBS and blocked with 50% FCS in culture medium for 30 min. There were two variants of the test. In the first one, the whole bottom of the Petri dish was blocked with 50% FCS, and the dishes were seeded with 5 ml of cell suspension (10^5 cells/ml). After overnight incubation, the cultures were rinsed with PBS, fixed and stained. In the other variant, only the area of adsorbed MN/CA IX was blocked and on top of MN/CA IX dots were added 30 μl drops of cell suspension in growth medium, containing added oligopeptides (or control without peptides). After incubation, rinsing and fixation, the cultures were stained with 0.5% Trypan blue in 50 mM Tris buffer pH 8.5 for 1 h, rinsed with water and dried. Stained areas of attached cells were extracted with 10% acetic acid, the extracts transferred to 96-well plates and absorbance was measured at 630 nm on microplate reader.

With `Nc1nc(O)c2ncn(COC(CO)CO)c2n1` [GVC, ganciclovir], the cells killed entry in assay [1] is recorded as “up to 95%”.
As to `CC(=O)Nc1nnc(S(N)(=O)=O)s1` [acetazolamide], the “difference between transformed cells growing in presence or absence of the drug” value in assay [2] is “No difference”.
As for ADLPGEEA [SEQ ID NO: 134], the “serological activity in competition ELISA with M75” value (shortened to “serological activity”) in the assay with MAb M75 is on record as “none of the following still shorter oligopeptides (6+2aa) competed”.
Turning to ADLPGEEDA [SEQ ID NO. 129], in the assay with MAb M75, the “competition in ELISA for M75” value is on record as “negative”.
With AEDLPGEA [SEQ ID NO: 133], the “serological activity” value in the assay on MAb M75 is recorded as “none of the following still shorter oligopeptides (6+2aa) competed”.
As to AEDLPGEEA [SEQ ID NO: 128], the “competition in ELISA for M75” value in the assay on MAb M75 is “negative”.
On to AEEDLPGA [SEQ ID NO: 132], for which the “serological activity” value in the assay on MAb M75 is recorded as “none of the following still shorter oligopeptides (6+2aa) competed”.
Consider AEEDLPGEA [SEQ ID NO: 127], for which, in the assay on MAb M75, the “competition in ELISA for M75” value is on record as “negative”.
Consider AGEEDLPA [SEQ ID NO: 131], for which the “serological activity” value with MAb M75 is given as “none of the following still shorter oligopeptides (6+2aa) competed”.
For the compound AGQTRSPLA [SEQ ID NO: 140], the “activity of phage-display nonapeptides in competition ELISA” value in the assay on MAb M75 is “inactive”. The “activity of phage-display nonapeptides in cell adhesion inhibition” value (from here on “activity … in cell adhesion inhibition”) with MN/CA IX is “inactive”.
AITFNAQYA [SEQ ID NO: 138]: the “activity of phage-display nonapeptides in competition ELISA” value in the assay with MAb M75 is given as “highest activity”. For the same compound, the “activity … in cell adhesion inhibition” value with MN/CA IX is recorded as “highest activity”.
As to AKKMKRRKA [SEQ ID NO: 137], the “activity of phage-display nonapeptides in competition ELISA” value in the assay with MAb M75 was “less active”. Besides, the “activity … in cell adhesion inhibition” value with MN/CA IX is given as “less active”.
ALPGEEDA [SEQ ID NO: 135]: the “serological activity” value in the assay on MAb M75 is recorded as “none of the following still shorter oligopeptides (6+2aa) competed”.
Turning to ALPGEEDLA [SEQ ID NO: 130], the “competition in ELISA for M75” value in the assay with MAb M75 was “negative”.
For the compound APGEEDLA [SEQ ID NO: 136], the “serological activity” value in the assay on MAb M75 is “none of the following still shorter oligopeptides (6+2aa) competed”.
Same read-out and setting: in the case of APGEEDLPA [SEQ ID NO: 125] it was “minimum serologically active sequence”.
On to ASASAPVSA [SEQ ID NO: 139], for which the “activity of phage-display nonapeptides in competition ELISA” value with MAb M75 is given as “marginally positive”. Further, the “activity … in cell adhesion inhibition” value in the assay with MN/CA IX was “marginally positive only in ELISA”.
For DLPGEEDLPGEE [SEQ ID NO: 122], in the assay with MAb M75, the “serological activity” value was “serologically active”.
Turning to EDLPGEEDLP [SEQ ID NO: 121], the “serological activity” value in the assay with MAb M75 was “serologically active”.
As for “EDPPGEEDLPGEEDLPGEEDLPEVC [SEQ ID NO: 106, aa 75-98 of the PG region, cysteine added onto the C-end]”, the “concentration causing 50% inhibition in competition ELISA” value in the assay on MAb M75 was determined as 1 ng/mL.
EEDLPGEEDLPG [SEQ ID NO: 120]: the “serological activity” value in the assay with MAb M75 is on record as “serologically active”.
For the compound “EVKPKSEEEGSLKLE [SEQ ID NO: 118, aa 97-111 of the PG region]”, the “serological activity” value in the assay with MAb M75 is “inactive”.
Still for that read-out and setting: in the case of GEEDLPGEEDLP [SEQ ID NO: 119] it was “serologically active”.
With “GEEDLPSEEDSPREEDPPGEEDLPGEC [SEQ ID NO: 105, aa 61-85 of the PG region, cysteine added onto the C-end]”, the “fold less active than SEQ ID NOS: 104 and 106 in competition ELISA” value with MAb M75 worked out at 1000 ×.
For the compound “GGSSGEDDPLGEEDLPSEEDSPC [SEQ ID NO: 104, aa 51-72 of the PG region, cysteine added onto the C-end]”, the “concentration causing 50% inhibition in competition ELISA” value in the assay on MAb M75 turned out to be 1 ng/mL.
LPGEEDLPGEED [SEQ ID NO: 123]: the “serological activity” value in the assay with MAb M75 is given as “serologically active”.
Same read-out and setting: in the case of PGEEDLPGEEDL [SEQ ID NO: 124] it was “serologically active”.
